The values that follow come from patent US20110178131A1, “Compounds Which Have Activity At M1 Receptor And Their Uses In Medicine” (priority 2008, published 2011).

Where a name gives a salt, the structure may show the parent alone.

For the test, the target named is T1, human muscarinic M1 receptors (Homo sapiens, UniProt P11229).
T1 construct: expressed in transfected cells
T1 sequence (P11229 1-460): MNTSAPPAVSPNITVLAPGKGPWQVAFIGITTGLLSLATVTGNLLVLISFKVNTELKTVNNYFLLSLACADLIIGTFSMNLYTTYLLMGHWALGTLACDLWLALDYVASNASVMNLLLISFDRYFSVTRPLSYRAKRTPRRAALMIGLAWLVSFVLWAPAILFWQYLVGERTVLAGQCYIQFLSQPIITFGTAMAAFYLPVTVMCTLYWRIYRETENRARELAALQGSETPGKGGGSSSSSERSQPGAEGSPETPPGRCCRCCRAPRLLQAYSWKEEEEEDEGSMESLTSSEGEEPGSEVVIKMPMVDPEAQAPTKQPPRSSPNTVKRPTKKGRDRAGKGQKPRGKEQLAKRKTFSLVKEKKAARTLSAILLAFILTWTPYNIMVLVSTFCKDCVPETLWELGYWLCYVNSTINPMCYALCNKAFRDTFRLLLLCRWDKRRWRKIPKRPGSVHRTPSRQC
The experiment in a line: FLIPR experiments on M1 receptors (calcium response, agonism). The test is classed as cell-based. To be noted: CHO-M1 cells. As for the experimental part: FLIPR Experiments on M1 Receptors to Determine a Agonist/Antagonist Potency
Compounds of the invention may be characterized in a functional assay to determine their ability to activate the intracellular calcium pathway in CHO cells with stable expression of human muscarinic M1 receptors using FLIPR (Fluorometric Imaging Plate Reader) technology. Briefly, CHO-M1 cells were plated (15,000/well) and allowed to grow overnight at 37 degrees. Media were removed and 30 μL loading buffer (HBSS with 2.5 mM probenicid, 2 μM Fluo-4, 500 μM Brilliant Black, pH 7.4) was added. After incubation at 37 degrees for 90 minutes, 10 μL of the assay buffer (HBSS with 2.5 mM probenecid, pH 7.4) containing test compounds was added to each well on the FLIPR instrument. Calcium response was monitored to determine agonism. […] Calcium response was then monitored again to determine compound's antagonism to acetylcholine. […] Results were imported into ActivityBase data analysis suite (ID Business Solution Inc., Parsippany, N.J.) where the curves were analysed by non-linear curve fitting and the resulting pEC50/fpKi were calculated. The maximum asymptotes of agonist compounds were calculated as percentage of maximum FLIPR response induced by carbamoylcholine chloride added as control on the same compound plates.

As to `COCC1CCC(N2CCC(n3c(=O)oc4ccc(C#N)cc43)CC2)CC1` (mixture of isomers) [Example 1, 3-(1-{4-[(Methyloxy)methyl]cyclohexyl}-4-piperidinyl)-2-oxo-2,3-dihydro-1,3-benzoxazole-5-carbonitrile hydrochloride], the EC50 (FLIPR calcium response, agonism, read-out: average pEC50 at the muscarinic M1 receptor (converted)) was below 3.16 µM. The Emax (maximum asymptote as percentage of maximum FLIPR response induced by carbamoylcholine chloride, read-out: intrinsic activity) was above 50%.
